Results: patent publication US20100266501A1, “METHODS AND COMPOSITIONS FOR ORGAN PROTECTION” (University Of Vermont and State Agricltural College, priority 2006, published 2010)
Like-named read-outs stand apart in the source and are kept apart here.

Assays:
[1] = system: pig model of myocardial ischemia and reperfusion; assay: Ischemia-reperfusion model: area at risk and infarct size (Evans Blue / TTC staining); type: in vivo; conditions: for area at risk as a percentage of ventricular myocardium / infarct size as a percentage of the area at risk / infarct size as percent of ventricular myocardium (TTC staining): 60 min LAD occlusion, 24 h reperfusion, 200 ml contrast, NAC 11.3 mg/mL, n=5, mean±SD
Excerpt: Sedation, anesthesia and instrumentation of the pigs were accomplished in accordance to the dose escalation study. All pigs received a bolus of 2000 units of heparin sulfate after obtaining femoral artery access. A guide wire (PT2, 0.014″×185 cm, Boston Scientific, Natick, Mass.) was then advanced into the left anterior descending (LAD) coronary artery followed by inflation of a balloon (Monorail Maverick, 2.5×15 mm, Boston Scientific) in its mid-portion, just distal to the second diagonal branch. Total occlusion was confirmed by contrast injections after increasing balloon pressures in 1 atm increments. Total occlusion time was 60 minutes. Throughout the experiment, the animals were monitored by continuous digital ECG recordings and guide catheter pressure recordings. Digital cineangiograpic recordings were obtained in straight anterioposterior projections. A total of 200 ml of contrast medium was administered to each animal. Approximately half of the contrast volume was used during diagnostic angiography and insertion of the guidewire into the LAD. The remaining contrast was injected after deflation of the balloon during the reperfusion period. After 20-30 minutes of reperfusion, catheter, balloon and guide wire were withdrawn. An Angio-Seal 6-French femoral artery closure device (St. Jude Medical, St. Paul, Minn.) was deployed and the Isoflurane was discontinued. After 30 minutes the ECG recording was stopped and the animals were extubated and transferred to the animal housing facility. No animal was lost during the housing period. Twenty four hours later the animals were sedated and intubated. The thoracic cavity was opened by a midline sternotomy and ligatures were placed at the site of the proximal balloon occlusion, the aortic arch branches and the descending aorta. The right carotid artery was cannulated and a plastic catheter advanced into the aortic root. […] The vessels were occluded in the following order: LAD, aortic arch branches and descending aorta. The dye was then injected at a perfusion pressure of 120 mmHg until the myocardium was stained. […] In the NAC group two animals could not be used for the myocardial infarction analysis (insufficient Evans Blue staining, unsuccessful electrical cardioversion). Evans Blue stained hearts were harvested and the atria were removed. The ventricles were sliced into one centimeter slices in a bread loaf fashion, with the first slice at the apex. At least five slices could be obtained in all hearts. The basal surfaces of the slices were sequentially imaged. Small samples of myocardium from areas of necrosis, area at risk and normal left ventricular myocardium were obtained from the apical side of the second and third slice and stored for additional analyses. […] The basal surfaces were then re-imaged. Area analysis (planimetry) was performed with the NIH-Image program (Scion Image Version 4.0.2). The size of the area at risk and infarct size for each slice was determined by multiplying the mass of the slice by the fraction of area at risk or by the fraction of area of infarction. Total infarct size and the area at risk size were expressed as a percentage of biventricular mass to account for the anterior right ventricular infarction.

[2] = system: pig model of myocardial ischemia and reperfusion; assay: Ischemia-reperfusion model: infarct morphology (circumference/area index); type: in vivo; conditions: for morphologic appearance of the infarcted area: TTC stained sections
Excerpt: (§1) Sedation, anesthesia and instrumentation of the pigs were accomplished in accordance to the dose escalation study. All pigs received a bolus of 2000 units of heparin sulfate after obtaining femoral artery access. A guide wire (PT2, 0.014″×185 cm, Boston Scientific, Natick, Mass.) was then advanced into the left anterior descending (LAD) coronary artery followed by inflation of a balloon (Monorail Maverick, 2.5×15 mm, Boston Scientific) in its mid-portion, just distal to the second diagonal branch. Total occlusion was confirmed by contrast injections after increasing balloon pressures in 1 atm increments. Total occlusion time was 60 minutes. Throughout the experiment, the animals were monitored by continuous digital ECG recordings and guide catheter pressure recordings. Digital cineangiograpic recordings were obtained in straight anterioposterior projections. In order to quantify visual differences in infarct morphology, a circumference/area index of the infarcted myocardium using TTC stained sections was calculated.

myocyte nuclei = assay: Ischemia-reperfusion model: TUNEL assay for apoptosis in myocardium; type: in vivo, pig; conditions: for nuclei stained positive for apoptosis (TUNEL): infarct tissue; for nuclei stained positive for apoptosis (TUNEL) / nuclei stained TUNEL positive: mean±SD; for nuclei stained TUNEL positive: non-infarcted area at risk
Excerpt: Sedation, anesthesia and instrumentation of the pigs were accomplished in accordance to the dose escalation study. All pigs received a bolus of 2000 units of heparin sulfate after obtaining femoral artery access. A guide wire (PT2, 0.014″×185 cm, Boston Scientific, Natick, Mass.) was then advanced into the left anterior descending (LAD) coronary artery followed by inflation of a balloon (Monorail Maverick, 2.5×15 mm, Boston Scientific) in its mid-portion, just distal to the second diagonal branch. Total occlusion was confirmed by contrast injections after increasing balloon pressures in 1 atm increments. Total occlusion time was 60 minutes. Throughout the experiment, the animals were monitored by continuous digital ECG recordings and guide catheter pressure recordings. Digital cineangiograpic recordings were obtained in straight anterioposterior projections. TUNEL assays were performed on samples from […] area at risk and infarcted tissue to investigate if NAC reduces ischemia-reperfusion induced apoptosis. A total of four samples from two control animals and six samples from three NAC treated animals were analyzed. Tissue sections were deparaffinized and permeabilized with proteinase K (25 μg/ml in 100 mM Tris.HCl). An in situ apoptotic cell death detection kit (TMR red; Roche Applied Bio Sciences, Indianapolis, Ind.) based on the TUNEL assay was used to detect apoptotic cells. Sections were mounted with Vectashield mounting medium containing 4′,6-diamidino-2-phenylindole (DAPI; Vector Laboratories, Burlingame, Calif.) as a nuclear counterstain. Sections were examined with a Zeiss Axiovert 200 microscope and Zeiss LSM 510 META laser scanning confocal microscope. The percentage of apoptotic nuclei per section was calculated by counting the total number of TUNEL-staining nuclei divided by the total number of DAPI-positive nuclei in 10 randomly selected fields at ×40 magnification (14).

[3] = system: pig model of myocardial ischemia and reperfusion; assay: Ischemia-reperfusion model: periprocedural arrhythmias (VT, VF, DCCV); type: in vivo; conditions: 200 ml contrast, NAC 11.3 mg/mL
Excerpt: as §1, with “projections.” for “projections. In order to quantify visual differences in infarct morphology, a circumference/area index of the infarcted myocardium using TTC stained sections was calculated.”
Blood pressure, heart rate, and high-resolution ECG were continuously recorded beginning at the time of coronary occlusion and for 30 minutes following reperfusion. The occurrence of ventricular tachycardia during coronary occlusion or reperfusion (defined as more than 4 consecutive ventricular ectopic beats) and ventricular fibrillation were recorded. […] (DCCV) was provided for ventricular fibrillation and ventricular tachycardia with hemodynamic instability. No antiarrhythmic medications were used.

[4] = Ischemia-reperfusion model: serum creatinine; type: in vivo, pig; conditions: for baseline creatinine level / creatinine level: serum, mean±SD; for baseline creatinine level: prior to contrast medium administration; for creatinine level: twenty four hours after ischemia-reperfusion, 200 ml contrast
Excerpt: Sedation, anesthesia and instrumentation of the pigs were accomplished in accordance to the dose escalation study. All pigs received a bolus of 2000 units of heparin sulfate after obtaining femoral artery access. A guide wire (PT2, 0.014″×185 cm, Boston Scientific, Natick, Mass.) was then advanced into the left anterior descending (LAD) coronary artery followed by inflation of a balloon (Monorail Maverick, 2.5×15 mm, Boston Scientific) in its mid-portion, just distal to the second diagonal branch. Total occlusion was confirmed by contrast injections after increasing balloon pressures in 1 atm increments. […] Throughout the experiment, the animals were monitored by continuous digital ECG recordings and guide catheter pressure recordings. Digital cineangiograpic recordings were obtained in straight anterioposterior projections. A total of 200 ml of contrast medium was administered to each animal. Approximately half of the contrast volume was used during diagnostic angiography and insertion of the guidewire into the LAD. The remaining contrast was injected after deflation of the balloon during the reperfusion period. After 20-30 minutes of reperfusion, catheter, balloon and guide wire were withdrawn. An Angio-Seal 6-French femoral artery closure device (St. Jude Medical, St. Paul, Minn.) was deployed and the Isoflurane was discontinued. After 30 minutes the ECG recording was stopped and the animals were extubated and transferred to the animal housing facility. No animal was lost during the housing period. Serum was collected prior to contrast exposure and 24 hours after infarction and analyzed for creatinine. An attempt was also made to assay Cystatin C as a second renal marker. However, Cystatin C was undetectable in pig serum.

[5] = Intracoronary NAC dose escalation: ECG (QT interval, arrhythmias, heart rate)
Experimental: Accordingly, the effects of escalating doses of intracoronary NAC (Cumberland Pharmaceuticals, Nashville, Tenn.) mixed with contrast medium on blood pressure and cardiac rhythm were tested in two healthy farm raised pigs (23 and 26 kg).
The pigs were anesthetized with Isoflurane after intramuscular pre-medication with Ketamine (20 mg/kg). After endotracheal intubation they were ventilated (Harvard Apparatus, Holliston, Mass.) with a mixture of oxygen and 1-3 percent isoflurane. A surgical level of anesthesia was confirmed prior to obtaining percutaneous femoral arterial access using a 6-French sheath. A JR 4 or HS guide catheter was inserted and placed at the ostium of the left main coronary artery. Continuous twelve-lead ECG and catheter based pressures were digitally recorded with the administration of bolus injections of NAC. The initial dose was 56.6 mg of NAC diluted in 5 mL of. Iopamidol (Isovue 370®, Bracco Pharmaceuticals, Princeton, N.J.). This dose of 11.3 mg NAC/mL is referred to as the target dose because it would deliver a dose of 1850 milligrams of NAC to an average patient undergoing a percutaneous coronary intervention. […] Following at least five injections of the target dose, a total of four high dose injections were performed, two of 250 mg per 5 mL bolus and two of 500 mg NAC per 5 mL bolus (equal to 4.4× and 8.8× target dose). […] Blood pressure and QT interval were analyzed at the end of three succeeding respiratory cycles (6, 12 and 18 seconds after injection) and are reported as a mean percent change from baseline.
In the dose escalation study the effect of each injection on blood pressure and QT interval was expressed as a percentage change from the immediately preceding baseline and analyzed by a paired student's t-test. A p-value of less than 0.05 was accepted as statistically significant.

[6] = 250 mg NAC per 5 mL bolus, six seconds
[7] = 500 mg NAC per 5 mL bolus, six seconds
[8] = 5 ml contrast with target dose NAC 11.3 mg/mL, 6 seconds after injection
[9] = target dose NAC 11.3 mg/mL, 18 seconds after injection

## C[C@H](O)C(=O)Nc1c(I)c(C(=O)NC(CO)CO)c(I)c(C(=O)NC(CO)CO)c1I [Iopamidol]
[1]
  area at risk as a percentage of ventricular myocardium: 15.1±4.8%
  infarct size as a percentage of the area at risk: 92.4±6.3%
  infarct size as percent of ventricular myocardium (TTC staining): 13.9±4.5%
[2]
  morphologic appearance of the infarcted area: homogeneous with discrete borders
Myocyte nuclei
  nuclei stained positive for apoptosis (TUNEL): 35.8±5.7%
  nuclei stained TUNEL positive: 32.1±4.0%
[3]
  ventricular arrhythmias during ischemia-reperfusion: none of the control ischemia-reperfusion animals developed ventricular fibrillation or required DCCV
[4]; 200 ml of contrast without periprocedural hydration, 24 h
  increase in creatinine levels: 37%
[4]
  baseline creatinine level: 1.32 ± 0.26 mg/dL
  creatinine level: 1.82 ± 0.24 mg/dL
Contrast only, intracoronary injection
  blood pressure effects of control injections: did not show such effects
[5]; contrast injections without NAC
  QT changes: No significant QT changes

## CC(=O)N[C@@H](CS)C(=O)O [NAC, N-acetylcysteine]
[1]
  area at risk as a percentage of ventricular myocardium: 18.4±1.8%
  infarct size as a percentage of the area at risk: 44.7±12.4%
  infarct size as percent of ventricular myocardium (TTC staining): 8.2±2.3%
[1]; NAC-contrast vs contrast-only
  reduction in infarct size: approximately 50%
[2]
  morphologic appearance of the infarcted area: mottled appearance
[2]; compared with control animals
  ratio of infarct circumference to infarct area: greater
Myocyte nuclei
  nuclei stained positive for apoptosis (TUNEL): 33.0±3.7%
  nuclei stained TUNEL positive: 1.6±1.6%
Myocyte nuclei; non-ischemic myocardium (non-LAD territories), NAC treated vs control
  TUNEL positive myocyte nuclei: without a significant difference
[3]
  ventricular arrhythmias during ischemia-reperfusion: developed ventricular tachycardia, fibrillation or both
[4]; NAC provided during contrast administration vs contrast-only
  reduction of the rise in post procedure creatinine levels: about 60%
[4]
  baseline creatinine level: 1.29 ± 0.15 mg/dL
  creatinine level: 1.49 ± 0.06 mg/dL
[6]
  reduction of diastolic blood pressure: 26%
  reduction of systolic blood pressure: 14%
250 mg and 500 mg bolus
  time to recovery of diastolic pressures: 45 to 60 s
250 mg and 500 mg bolus, after 18 seconds
  systolic blood pressure: normalized
[7]
  reduction of diastolic blood pressure: 43%
  reduction of systolic blood pressure: 48%
[8]
  reduction in diastolic blood pressure: 17%
  reduction of systolic blood pressure: 5%
Target dose NAC 11.3 mg/mL
  time to complete normalization of blood pressure: 45 to 60 s
[9]
  decrease in diastolic pressure: about 7%
  systolic pressure: returned to pre-injection pressures
[5]; 250 mg NAC bolus, 18 seconds
  QT interval prolongation: normalized
[5]; 250 mg NAC bolus, immediately after injection
  QT interval prolongation: 16%
[5]; 500 mg NAC bolus
  time to complete recovery of QT interval to baseline: 45 to 60 s
[5]; 500 mg NAC bolus, 18 seconds
  QT interval prolongation: 9%
[5]; 500 mg NAC bolus, immediately after injection
  QT interval prolongation: 35%
[5]; healthy pigs, intracoronary bolus injections
  arrhythmias or changes in heart rate after injections of contrast containing NAC: did not cause any arrhythmias or changes in heart rate
[5]; target dose 11.3 mg/mL, eighteen seconds after injection
  QT interval prolongation: significant QT prolongation was no longer present
[5]; target dose 11.3 mg/mL, six seconds after injection
  QT interval prolongation: 10%
